From PubChem BioAssay (NCI)
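GI50: concentration for 50% inhibition of growth. TGI marks complete inhibition of growth.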

Assays:
Test in all cases: DTP human tumour cell line panel, 384-well format
UACC-62 melanoma = system: UACC-62 melanoma
MALME-3M melanoma = system: MALME-3M melanoma
CCRF-CEM leukemia = system: CCRF-CEM leukemia
BT-549 breast = system: BT-549 breast
OVCAR-3 ovarian = system: OVCAR-3 ovarian
LOX IMVI melanoma = system: LOX IMVI melanoma
786-0 renal = system: 786-0 renal
SNB-75 CNS = system: SNB-75 CNS
SF-268 CNS = system: SF-268 CNS
SK-MEL-5 melanoma = system: SK-MEL-5 melanoma
K-562 leukemia = system: K-562 leukemia
RPMI-8226 leukemia = system: RPMI-8226 leukemia
NCI/ADR-RES ovarian = system: NCI/ADR-RES ovarian
NCI-H522 lung = system: NCI-H522 lung
SR leukemia = system: SR leukemia
DU-145 prostate = system: DU-145 prostate
KM12 colon = system: KM12 colon
UACC-257 melanoma = system: UACC-257 melanoma
HCC-2998 colon = system: HCC-2998 colon
HT29 colon = system: HT29 colon
COLO 205 colon = system: COLO 205 colon
RXF 393 renal = system: RXF 393 renal
MDA-MB-435 melanoma = system: MDA-MB-435 melanoma
NCI-H322M lung = system: NCI-H322M lung
M14 melanoma = system: M14 melanoma
CAKI-1 renal = system: CAKI-1 renal
OVCAR-5 ovarian = system: OVCAR-5 ovarian
SK-OV-3 ovarian = system: SK-OV-3 ovarian
HL-60(TB) leukemia = system: HL-60(TB) leukemia
T-47D breast = system: T-47D breast
A498 renal = system: A498 renal
NCI-H23 lung = system: NCI-H23 lung
SNB-19 CNS = system: SNB-19 CNS
HS 578T breast = system: HS 578T breast
NCI-H226 lung = system: NCI-H226 lung
MOLT-4 leukemia = system: MOLT-4 leukemia
HOP-92 NSCLC = system: HOP-92 NSCLC
SK-MEL-28 melanoma = system: SK-MEL-28 melanoma
A549 NSCLC = system: A549 NSCLC
MDA-MB-468 breast = system: MDA-MB-468 breast
IGROV1 ovarian = system: IGROV1 ovarian
SW-620 colon = system: SW-620 colon
HOP-62 NSCLC = system: HOP-62 NSCLC
NCI-H460 NSCLC = system: NCI-H460 NSCLC
MCF7 breast = system: MCF7 breast
TK-10 renal = system: TK-10 renal
HCT-15 colon = system: HCT-15 colon
EKVX NSCLC = system: EKVX NSCLC
MDA-MB-231 breast = system: MDA-MB-231 breast
UO-31 renal = system: UO-31 renal
PC-3 prostate = system: PC-3 prostate
ACHN renal = system: ACHN renal
OVCAR-8 ovarian = system: OVCAR-8 ovarian
SN12C renal = system: SN12C renal
SF-295 CNS = system: SF-295 CNS
OVCAR-4 ovarian = system: OVCAR-4 ovarian
SF-539 CNS = system: SF-539 CNS

`Cc1cc2ncnn2cc1Nc1ncc2c(n1)n(C1CCOCC1)c(=O)n2C` gave a GI50 (UACC-62 melanoma) of 21.2 µM, a TGI (UACC-62 melanoma) greater than 100 µM and a GI50 (MALME-3M melanoma) of 4.21 µM. The TGI (MALME-3M melanoma) was 61.9 µM, the GI50 (CCRF-CEM leukemia) was 3.21 µM and the TGI (CCRF-CEM leukemia) was 17.5 µM. For the same molecule, the GI50 (BT-549 breast) was 24.2 µM, the TGI (BT-549 breast) was greater than 100 µM and the GI50 (OVCAR-3 ovarian) was 14.5 µM. It also gave a TGI (OVCAR-3 ovarian) greater than 100 µM, a GI50 (LOX IMVI melanoma) of 14.4 µM and a TGI (LOX IMVI melanoma) greater than 100 µM. For the same molecule, the GI50 ([…]-0 renal) was 36.4 µM, the TGI (786-0 renal) was greater than 100 µM and the GI50 (SNB-75 CNS) was 6.38 µM. For the same molecule, the TGI (SNB-75 CNS) was greater than 100 µM, the GI50 (SF-268 CNS) was greater than 100 µM and the TGI (SF-268 CNS) was greater than 100 µM. The GI50 (SK-MEL-5 melanoma) was 15.5 µM, the TGI (SK-MEL-5 melanoma) was greater than 100 µM and the GI50 (K-562 leukemia) was greater than 100 µM. For the same molecule, the TGI (K-562 leukemia) was greater than 100 µM, the GI50 (RPMI-8226 leukemia) was 1.44 µM and the TGI (RPMI-8226 leukemia) was 3.98 µM. For the same molecule, the GI50 (NCI/ADR-RES ovarian) was greater than 100 µM, the TGI (NCI/ADR-RES ovarian) was greater than 100 µM and the GI50 (NCI-H522 lung) was 9.5 µM. It also gave a TGI (NCI-H522 lung) greater than 100 µM, a GI50 (SR leukemia) of 4.11 µM and a TGI (SR leukemia) greater than 100 µM. It also gave a GI50 (DU-145 prostate) of 28.8 µM, a TGI (DU-145 prostate) greater than 100 µM and a GI50 (KM12 colon) of 18 µM. It also gave a TGI (KM12 colon) greater than 100 µM, a GI50 (UACC-257 melanoma) greater than 100 µM and a TGI (UACC-257 melanoma) greater than 100 µM. For the same molecule, the GI50 (HCC-2998 colon) was 38.2 µM, the TGI (HCC-2998 colon) was greater than 100 µM and the GI50 (HT29 colon) was 32.9 µM. The TGI (HT29 colon) was greater than 100 µM, the GI50 (COLO 205 colon) was 17.1 µM and the TGI (COLO 205 colon) was greater than 100 µM. For the same molecule, the GI50 (RXF 393 renal) was 49.6 µM, the TGI (RXF 393 renal) was greater than 100 µM and the GI50 (MDA-MB-435 melanoma) was 41.4 µM. The TGI (MDA-MB-435 melanoma) was greater than 100 µM, the GI50 (NCI-H322M lung) was 18.8 µM and the TGI (NCI-H322M lung) was greater than 100 µM. The GI50 (M14 melanoma) was 19.3 µM, the TGI (M14 melanoma) was greater than 100 µM and the GI50 (CAKI-1 renal) was 16.5 µM. For the same molecule, the TGI (CAKI-1 renal) was greater than 100 µM, the GI50 (OVCAR-5 ovarian) was 11.9 µM and the TGI (OVCAR-5 ovarian) was greater than 100 µM. For the same molecule, the GI50 (SK-OV-3 ovarian) was 6.16 µM, the TGI (SK-OV-3 ovarian) was greater than 100 µM and the GI50 (HL-60(TB) leukemia) was 35.2 µM. For the same molecule, the TGI (HL-60(TB) leukemia) was greater than 100 µM, the GI50 (T-47D breast) was 1.7 µM and the TGI (T-47D breast) was 7.63 µM. It also gave a GI50 (A498 renal) of 2.66 µM, a TGI (A498 renal) of 31.3 µM and a GI50 (NCI-H23 lung) of 26.5 µM. The TGI (NCI-H23 lung) was greater than 100 µM, the GI50 (SNB-19 CNS) was greater than 100 µM and the TGI (SNB-19 CNS) was greater than 100 µM. For the same molecule, the GI50 (HS 578T breast) was 4.78 µM, the TGI (HS 578T breast) was 37.9 µM and the GI50 (NCI-H226 lung) was 10.5 µM. For the same molecule, the TGI (NCI-H226 lung) was greater than 100 µM, the GI50 (MOLT-4 leukemia) was 5.53 µM and the TGI (MOLT-4 leukemia) was 33.8 µM. The GI50 (HOP-92 NSCLC) was 6.69 µM, the TGI (HOP-92 NSCLC) was greater than 100 µM and the GI50 (SK-MEL-28 melanoma) was 22.4 µM. For the same molecule, the TGI (SK-MEL-28 melanoma) was greater than 100 µM, the GI50 (A549 NSCLC) was 12.1 µM and the TGI (A549 NSCLC) was greater than 100 µM. The GI50 (MDA-MB-468 breast) was 5.36 µM, the TGI (MDA-MB-468 breast) was 52.7 µM and the GI50 (IGROV1 ovarian) was 4.91 µM. It also gave a TGI (IGROV1 ovarian) of 32.9 µM, a GI50 (SW-620 colon) greater than 100 µM and a TGI (SW-620 colon) greater than 100 µM. For the same molecule, the GI50 (HOP-62 NSCLC) was 22.2 µM, the TGI (HOP-62 NSCLC) was greater than 100 µM and the GI50 (NCI-H460 NSCLC) was 4.88 µM. The TGI (NCI-H460 NSCLC) was greater than 100 µM, the GI50 (MCF7 breast) was 4.64 µM and the TGI (MCF7 breast) was greater than 100 µM. The GI50 (TK-10 renal) was 74.7 µM, the TGI (TK-10 renal) was greater than 100 µM and the GI50 (HCT-15 colon) was 12 µM. The TGI (HCT-15 colon) was greater than 100 µM, the GI50 (EKVX NSCLC) was 15.6 µM and the TGI (EKVX NSCLC) was greater than 100 µM. It also gave a GI50 (MDA-MB-231 breast) of 7.65 µM, a TGI (MDA-MB-231 breast) greater than 100 µM and a GI50 (UO-31 renal) greater than 100 µM. The TGI (UO-31 renal) was greater than 100 µM, the GI50 (PC-3 prostate) was 8.76 µM and the TGI (PC-3 prostate) was greater than 100 µM. It also gave a GI50 (ACHN renal) of 21.5 µM, a TGI (ACHN renal) greater than 100 µM and a GI50 (OVCAR-8 ovarian) of 50.5 µM. It also gave a TGI (OVCAR-8 ovarian) greater than 100 µM, a GI50 (SN12C renal) of 10.4 µM and a TGI (SN12C renal) greater than 100 µM. It also gave a GI50 (SF-295 CNS) of 6.33 µM, a TGI (SF-295 CNS) greater than 100 µM and a GI50 (OVCAR-4 ovarian) of 8.13 µM. The TGI (OVCAR-4 ovarian) was greater than 100 µM, the GI50 (SF-539 CNS) was 58.2 µM and the TGI (SF-539 CNS) was greater than 100 µM.
